Structures can show the parent of a compound that is named as a salt.
Key:
Details in all cases: stereoisomer not certain
[1] = RP, Merck Supelco Ascentis Express C18, 100 × 2.1 mm, 2 µm, 40 °C, 0.25 mL/min, estimated dead time 0.88 min; A: water + 0.1% formic acid, pH 3; B: acetonitrile + 0.1% formic acid, pH 3; gradient (min/%B) 0/5 2/5 17/99.9 20/99.9
[2] = RP, Merck Supelco Ascentis Express C18, 100 × 2.1 mm, 2 µm, 40 °C, 0.35 mL/min, estimated dead time 0.63 min; A: water + 0.1% formic acid, pH 3; B: acetonitrile + 0.1% formic acid, pH 3; gradient (min/%B) 0/5 2/5 17/99.9 20/99.9
[3] = RP, Merck Supelco Ascentis Express C18, 100 × 2.1 mm, 2 µm, 40 °C, 0.4 mL/min, estimated dead time 0.55 min; A: water + 0.1% formic acid, pH 3; B: acetonitrile + 0.1% formic acid, pH 3; gradient (min/%B) 0/5 2/5 17/99.9 20/99.9
[4] = as above; remark: listed apart in the source
[5] = RP, Merck Supelco Ascentis Express C18, 100 × 2.1 mm, 2 µm, 40 °C, 0.2 mL/min, estimated dead time 1.1 min; A: water + 0.1% formic acid, pH 3; B: acetonitrile + 0.1% formic acid, pH 3; gradient (min/%B) 0/5 2/5 17/99.9 20/99.9
[6] = as above; remark: listed apart in the source
[7] = RP, Merck Supelco Ascentis Express C18, 100 × 2.1 mm, 2 µm, 39 °C, 0.3 mL/min, estimated dead time 0.73 min; A: water + 0.1% formic acid, pH 3; B: acetonitrile + 0.1% formic acid, pH 3; gradient (min/%B) 0/5 2/5 17/99.9 20/99.9

Row | Compound | LC retention time [1] | LC retention time [2] | LC retention time [3] | LC retention time [4] | LC retention time [5] | LC retention time [6] | LC retention time [7]
1 | CCCCCCCCCC(C)=O [2-UNDECANONE] |  | 8.4 min |  | 8.13 min | 9.69 min |  | 
2 | O=C(O)C(O)c1ccc(O)c(O)c1 (stereo not drawn) [3,4 DIHYDROXYMANDELATE] |  | 0.79 min |  | 0.677 min | 1.41 min |  | 
3 | OCC(O)c1ccc(O)c(O)c1 (stereo not drawn) [3,4-DIHYDROXYPHENYLGLYCOL] |  | 0.783 min |  | 0.663 min | 1.39 min |  | 
4 | O=Cc1cccc(O)c1 [3-HYDROXYBENZALDEHYDE] |  | 3.94 min |  | 3.59 min | 5.47 min |  | 
5 | COc1cc(C(O)C(=O)O)ccc1O (stereo not drawn) [3-METHOXY-4-HYDROXYMANDELATE] |  | 1.21 min |  | 1.04 min | 2.12 min |  | 
6 | Nc1ccc(C(=O)O)cc1 [4-AMINOBENZOATE] |  | 4.3 min |  | 3.93 min | 5.87 min |  | 
7 | COc1cc(C(O)CO)ccc1O (stereo not drawn) [4-HYDROXY-3-METHOXYPHENYLGLYCOL] |  | 1.21 min |  | 1.07 min |  |  | 
8 | NCC(=O)CCC(=O)O [5-AMINOLEVULINATE] |  | 0.853 min | 0.737 min | 0.74 min | 1.51 min | 1.53 min | 1.01 min
9 | Nc1ccccc1C(=O)O [ANTHRANILATE] |  | 4.29 min |  | 3.93 min | 5.87 min |  | 
10 | CCCCCCCCCCCCCCCCCCCC(=O)O [ARACHIDATE] |  | 18.3 min |  | 17.9 min |  |  | 
11 | CCCCCCCC(=O)O [CAPRYLATE] | 10 min | 9.28 min | 8.82 min |  |  | 10.7 min | 9.52 min
12 | CC(O)(CC(=O)O)C(=O)O (stereo not drawn) [CITRAMALATE] |  | 0.86 min | 0.76 min | 0.717 min | 1.49 min |  | 
13 | CCCCCCCCCC(=O)O [DECANOATE] | 12 min |  | 10.8 min |  | 12.8 min | 12.7 min | 11.5 min
14 | CC(CCC(=O)O)C1CCC2C3CCC4CC(O)CCC4(C)C3CC(O)C12C (stereo not drawn) [DEOXYCHOLATE] |  | 10.8 min |  |  |  |  | 
15 | CCOC(=O)C(=O)C(C)C(=O)OCC (stereo not drawn) [DIETHYL 2-METHYL-3-OXOSUCCINATE] |  | 4.92 min |  |  | 6.29 min |  | 
16 | CCC=CCC=CCC=CCC=CCC=CCC=CCCC(=O)O [DOCOSAHEXAENOATE] | 15.8 min | 14.8 min | 14.5 min | 14.5 min | 16.5 min |  | 
17 | Cc1cn(C2CC(O)C(COP(=O)(O)OP(=O)(O)OC3OC(CO)C(O)C(O)C3O)O2)c(=O)[nH]c1=O [DTDP-D-GLUCOSE] |  |  |  | 0.667 min |  |  | 

Row | Compound | LC retention time [1] | LC retention time [2] | LC retention time [3] | LC retention time [4] | LC retention time [5] | LC retention time [6] | LC retention time [7]
18 | CCCCCCCCC=CCCCCCCCCCCCC(=O)O [ERUCATE] |  | 18.2 min |  | 17.8 min |  |  | 
19 | OCC(O)C(O)CO (stereo not drawn) [ERYTHRITOL] |  | 0.997 min |  | 0.87 min |  |  | 
20 | Cc1cc2nc3c(=O)[nH]c(=O)nc-3n(CC(O)C(O)C(O)COP(=O)(O)OP(=O)(O)OCC3OC(n4cnc5c(N)ncnc54)C(O)C3O)c2cc1C (stereo not drawn) [FAD] |  | 3.77 min |  | 3.63 min | 4.67 min |  | 
21 | CCCCCC=CCC=CCC=CCCCCC(=O)O [GAMMA-LINOLENATE] |  | 14.5 min |  | 14.1 min | 16.2 min |  | 
22 | CCCCCCC(=O)O [HEPTANOATE] |  | 5.36 min |  |  | 6.69 min |  | 
23 | C=C(CC(=O)O)C(=O)O [ITACONATE] |  | 1.35 min | 1.21 min | 1.14 min | 2.44 min | 2.46 min | 
24 | CCCCCC=CCC=CCCCCCCCC(=O)O [LINOLEATE] |  | 15.3 min | 13.1 min |  | 17 min |  | 
25 | COC(=O)c1ccc(O)c(OC)c1 [METHYL VANILLATE] |  | 3.91 min |  | 3.63 min | 5.99 min |  | 
26 | COC(=O)CCCC(=O)O [MONOMETHYLGLUTARATE] |  | 2.33 min |  | 2.02 min | 3.99 min |  | 
27 | CCCCCCCCC(=O)[O-] [NONANOATE] | 11.1 min |  | 9.85 min |  | 11.7 min | 11.7 min | 10.5 min
28 | CCCCCCC=CCCCCCCCC(=O)[O-] [PALMITOLEATE] | 15.9 min |  | 14.6 min | 14.5 min | 16.7 min | 16.7 min | 15.3 min
29 | c1ncc2[nH]cnc2n1 [PURINE] | 1.07 min | 0.757 min |  |  | 1.34 min | 1.35 min | 
30 | Oc1ccccc1O [PYROCATECHOL] | 3.05 min | 1.78 min | 1.55 min | 1.52 min |  |  | 
31 | CC1NCCc2cc(O)c(O)cc21 (stereo not drawn) [SALSOLINOL] |  | 0.82 min |  | 0.68 min | 1.44 min |  | 
32 | CCCCCCCCCCCCCCCCCC(=O)[O-] [STEARATE] | 18.3 min | 17.2 min | 16.9 min | 16.9 min | 19.1 min |  | 
33 | O=C(O)CCC(=O)O [SUCCINATE] |  | 0.827 min |  | 0.73 min | 1.49 min |  | 

Results, then the compound that gave them:

Row | LC retention time [1] | LC retention time [2] | LC retention time [3] | LC retention time [4] | LC retention time [5] | LC retention time [6] | LC retention time [7] | Compound
34 | 3.27 min | 2.33 min | 2.05 min | 2.02 min | 3.99 min |  |  | CC(CCC(=O)O)C(=O)O (stereo not drawn) [2-METHYLGLUTARATE]
35 |  | 1.35 min | 0.99 min | 1.16 min | 2.44 min | 2.46 min |  | CC(=CC(=O)O)C(=O)O [2-METHYLMALEATE]
36 |  | 2.33 min |  | 2.02 min | 3.97 min |  |  | OCc1cccc(O)c1 [3-HYDROXYBENZYL ALCOHOL]
37 |  | 2.96 min |  | 2.54 min | 4.64 min |  |  | CCC(C)C(=O)C(=O)O (stereo not drawn) [3-METHYL-2-OXOVALERATE]
38 | 3.27 min | 2.33 min | 2.04 min | 2.02 min | 3.99 min |  |  | O=C(O)CCCCC(=O)O [ADIPATE]
39 | 1.09 min | 0.77 min | 0.667 min |  |  | 1.38 min | 0.883 min | Nc1ncnc2c1ncn2C1CC(O)C(CO)O1 (stereo not drawn) [DEOXYADENOSINE]
40 |  | 0.757 min |  |  |  |  |  | Nc1nc2c(ncn2C2OC(COP(=O)(O)OP(=O)(O)OC3OC(CO)C(O)C(O)C3O)C(O)C2O)c(=O)[nH]1 (stereo not drawn) [GUANOSINE DIPHOSPHATE MANNOSE]
41 | 1.09 min | 0.757 min | 0.667 min |  | 1.36 min | 1.37 min | 0.89 min | Nc1nc2c(ncn2C2OC(CO)C(O)C2O)c(=O)[nH]1 (stereo not drawn) [GUANOSINE]
42 | 17.7 min | 16.7 min | 16.4 min | 16.3 min | 18.5 min |  |  | CCCCCCCCCCCCCCCCC(=O)O [HEPTADECANOATE]
43 | 6.63 min | 5.84 min | 5.6 min | 5.56 min |  | 7.21 min | 6.2 min | O=C(O)Cc1c[nH]c2ccccc12 [INDOLE-3-ACETATE]
44 |  | 3.57 min |  | 3.2 min |  |  |  | O=S(=O)(O)Oc1c[nH]c2ccccc12 [INDOXYL SULFATE]
45 |  | 0.88 min |  | 0.77 min | 4.65 min |  |  | CC(C)CC(=O)C(=O)O [KETOLEUCINE]
46 |  |  |  | 1.05 min |  |  |  | Nc1ccccc1C(=O)CC(N)C(=O)O (stereo not drawn) [KYNURENINE]
47 | 1.37 min | 0.957 min | 0.863 min | 0.807 min | 1.71 min |  |  | CC(C(=O)O)C(=O)O [METHYLMALONATE]
48 | 1.2 min | 0.863 min | 0.72 min | 0.73 min | 1.55 min | 1.57 min |  | CC(O)(CCO)CC(=O)[O-] (stereo not drawn) [MEVALONATE]
49 |  | 0.833 min | 0.667 min | 0.707 min | 1.48 min |  |  | O=C(O)CCCC(=O)C(=O)O [OXOADIPATE]
50 |  | 10.8 min |  | 10.5 min | 12.2 min |  |  | CC(CCC(=O)O)C1CCC2C3C(O)CC4CC(O)CCC4(C)C3CCC12C (stereo not drawn) [URSODEOXYCHOLATE]

— the RepoRT retention time repository (doi:10.1007/s00216-021-03828-0)
